From patent US8961930B2, “Isatin derivatives for use as in vivo imaging agents” (Imperial Innovations Limited, priority 2008, dated 2015)

Key:
Format in all cases: biochemical
caspase 7 = molecular target: T1, caspase 7 (Homo sapiens, UniProt P55210); assay: Fluorimetric in vitro caspase inhibition assay (7-AMC), caspase 7; details: recombinant human caspase 7, 10 μM Ac-DEVD-AMC
T1 construct: purchased Biomol International, UK
T1 sequence (P55210 24-198 limits assumed): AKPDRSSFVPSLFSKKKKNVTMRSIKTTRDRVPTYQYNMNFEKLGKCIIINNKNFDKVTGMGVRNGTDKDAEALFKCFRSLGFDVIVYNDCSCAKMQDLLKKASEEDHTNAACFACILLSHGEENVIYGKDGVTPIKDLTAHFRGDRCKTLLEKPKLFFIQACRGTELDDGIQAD
T1 sequence (P55210 207-303 limits assumed): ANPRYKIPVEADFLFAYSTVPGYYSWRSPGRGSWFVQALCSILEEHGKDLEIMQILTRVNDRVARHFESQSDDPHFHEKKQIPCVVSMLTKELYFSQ
Method: (§1) Recombinant human caspases-1, -3, -6, -7, and -8 and their peptide-specific substrates were purchased from Biomol International, UK Inhibition of the recombinant caspases by non-radioactive isatins was assessed using a fluorometric assay that measures the accumulation of a fluorogenic product, 7-amino-4-methylcoumarin (7-AMC). All assays were performed in 96-well plates at a volume of 200 μl per well. The assays were performed at 37° C. in an appropriate reaction buffer as described below for each caspase. For caspase 1, the buffer comprised of 0.1% CHAPS, 100 mM NaCl, 5 mM 2-mercaptoethanol, 100 mM HEPES (pH 7.4), 2 mM EDTA, 10% sucrose, and 10 μM of the peptide substrate Ac-YVAD-AMC. For caspase 3: 20 mM HEPES (pH 7.4), 10% sucrose, 100 mM NaCl, 0.1% CHAPS, 2 m, mM EDTA, and 10 μM Ac-DEVD-AMC. For caspase 6: 20 mM HEPES (pH 7.4), 10% sucrose, 100 mM NaCl, 0.1% CHAPS, 2 mM EDTA, and 10 μM Ac-VEID-AMC. For caspase 7: 20 mM HEPES (pH 7.4), 10% sucrose, 5 mM 2-mercaptoethanol, 100 mM NaCl, 0.1% CHAPS, 2 mM EDTA, 10 μM Ac-DEVD-AMC. For caspase 8: 20 mM HEPES (pH 7.4), 10% sucrose, 100 mM NaCl, 0.1% CHAPS, 2 mM EDTA, and 10 μM Ac-IETD-AMC. The Buffers contained non-radioactive isatins in DMSO at a final concentration of 500, 50, 5 μM; 500, 50, 5 nM; 500, 50, 5 pM; the final concentration of DMSO in all wells was 5% of the total volume. Recombinant caspases were used at 0.5 units per assay (˜500 pmol substrate converted per h). All reagents except the peptide substrate were pre-incubated for 10 min. The peptide substrate (final concentration 10 μM) was then added and the plate was incubated for a further 30 min; 30 min was selected after initial linearity study where reaction was assessed after 10, 30, 60 or 90 min. The 30 min time point was selected. Respective control wells contained all reaction components without enzyme. The amount of 7-AMC produced was measured on a fluorescence microplate reader (Victor2; Perkin-Elmer Life sciences) at excitation and emission wavelengths of 355 nm and 460 nm, respectively. The concentration of isatin that inhibits the caspase activity by 50% (EC50) was estimated by non-linear regression analysis using GraphPad Prism (Version 4.0 for Windows, GraphPad Software, San Diego Calif. USA). All the isatins were analyzed in duplicate; the assays were repeated once. Known compounds 13-16 were included as reference compounds.
(§2) The data are the average for two runs, each of which was duplicated, at nine concentrations ranging from 5 pM to 500 μM; the drug concentration required to inhibit each enzyme by 50% (EC50) was obtained from nonlinear regression analysis of the inhibition profiles.

caspase 1 = molecular target: T2, caspase 1 (Homo sapiens, UniProt P29466); assay: Fluorimetric in vitro caspase inhibition assay (7-AMC), caspase 1; details: recombinant human caspase 1, 10 μM Ac-YVAD-AMC; read-out: Caspase EC50 (nM), 1/6/8: caspase 1
T2 construct: purchased Biomol International, UK
T2 sequence (P29466 120-297 limits assumed): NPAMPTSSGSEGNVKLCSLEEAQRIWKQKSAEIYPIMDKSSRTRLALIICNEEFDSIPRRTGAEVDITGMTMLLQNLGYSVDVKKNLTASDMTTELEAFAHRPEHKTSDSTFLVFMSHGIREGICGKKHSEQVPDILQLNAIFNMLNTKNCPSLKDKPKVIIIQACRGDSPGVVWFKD
T2 sequence (P29466 317-404 limits assumed): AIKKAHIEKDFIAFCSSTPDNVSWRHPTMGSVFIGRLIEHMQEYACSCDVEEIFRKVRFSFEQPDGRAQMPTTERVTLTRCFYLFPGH
Method: as §1, §2

caspase 6 = molecular target: T3, caspase 6 (Homo sapiens, UniProt P55212); assay: Fluorimetric in vitro caspase inhibition assay (7-AMC), caspase 6; details: recombinant human caspase 6, 10 μM Ac-VEID-AMC; read-out: Caspase EC50 (nM), 1/6/8: caspase 6
T3 construct: purchased Biomol International, UK
T3 sequence (P55212 24-179 limits assumed): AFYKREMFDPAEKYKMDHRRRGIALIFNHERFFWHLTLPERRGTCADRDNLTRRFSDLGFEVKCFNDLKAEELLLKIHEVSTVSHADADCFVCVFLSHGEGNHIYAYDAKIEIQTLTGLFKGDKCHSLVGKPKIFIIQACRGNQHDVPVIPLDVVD
T3 sequence (P55212 194-293 limits assumed): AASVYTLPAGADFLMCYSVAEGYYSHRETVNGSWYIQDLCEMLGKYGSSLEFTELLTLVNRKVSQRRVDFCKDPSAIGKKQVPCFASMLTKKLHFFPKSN
Method: as §1, §2

caspase 8 = molecular target: T4, caspase 8 (Homo sapiens, UniProt Q14790); assay: Fluorimetric in vitro caspase inhibition assay (7-AMC), caspase 8; details: recombinant human caspase 8, 10 μM Ac-IETD-AMC; read-out: Caspase EC50 (nM), 1/6/8: caspase 8
T4 construct: purchased Biomol International, UK
T4 sequence (Q14790 217-374 limits assumed): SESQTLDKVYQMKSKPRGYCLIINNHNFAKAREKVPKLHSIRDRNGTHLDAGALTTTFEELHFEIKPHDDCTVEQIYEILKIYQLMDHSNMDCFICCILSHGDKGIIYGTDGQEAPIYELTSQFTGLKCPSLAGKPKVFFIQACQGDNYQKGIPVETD
T4 sequence (Q14790 385-479 limits assumed): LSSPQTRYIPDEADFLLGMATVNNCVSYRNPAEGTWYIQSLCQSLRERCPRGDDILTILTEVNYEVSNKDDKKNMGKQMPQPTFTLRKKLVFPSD
Method: as §1, §2

EC50 (caspase 7)	EC50 (caspase 1)	EC50 (caspase 6)	EC50 (caspase 8)	Compound
13.5 nM	> 5000 nM	> 5000 nM	> 5000 nM	O=C1C(=O)N(Cc2ccc(F)cc2)c2ccc(S(=O)(=O)N3CCC[C@H]3COc3cccc(F)c3)cc21 [Compound 1, (S)-1-(4-Fluorobenzyl)-5-(2-(3-fluorophenoxymethyl)-pyrrolidine-1-sulfonyl)isatin]
13 nM	> 5000 nM	> 5000 nM	> 5000 nM	O=C1C(=O)N(Cc2ccc(F)cc2)c2ccc(S(=O)(=O)N3CCC[C@H]3COc3ccc(F)cc3F)cc21 [Compound 2, (S)-1-(4-Fluorobenzyl)-5-(2-(2,4-difluorophenoxymethyl)-pyrrolidine-1-sulfonyl)isatin]
14.4 nM	> 5000 nM	> 5000 nM	> 5000 nM	O=C1C(=O)N(Cc2ccc(F)cc2)c2ccc(S(=O)(=O)N3CCC[C@H]3COC3CCOCC3)cc21 [Compound 4, (S)-1-(4-Fluorobenzyl)-5-(2-(tetrahydro-2H-pyran-4-yloxymethyl)-pyrrolidine-1-sulfonyl)isatin]
2.3 nM	> 5000 nM	> 5000 nM	> 5000 nM	O=C1C(=O)N(Cc2ccc(F)cc2)c2ccc(S(=O)(=O)N3CCC[C@H]3COc3ccncn3)cc21 [Compound 5, (S)-1-(4-Fluorobenzyl)-5-(2-(pyrimidin-4-yloxymethyl)-pyrrolidine-1-sulfonyl)isatin]
2.2 nM	> 5000 nM	> 5000 nM	> 5000 nM	O=C1C(=O)N(Cc2cn(CCF)nn2)c2ccc(S(=O)(=O)N3CCC[C@H]3COc3ccc(F)cc3F)cc21 [Compound 11, (S)-1-((1-(2-Fluoroethyl)-1H-[1,2,3]-triazol-4-yl)methyl)-5-(2(2,4-difluorophenoxymethyl)-pyrrolidine-1-sulfonyl)isatin]
29.4 nM	> 5000 nM	> 5000 nM	> 5000 nM	O=C1C(=O)N(Cc2ccccc2)c2ccc(S(=O)(=O)N3CCC[C@H]3COc3ccccc3)cc21 [Compound 13, (S)-1-benzyl-5-(2-phenoxymethyl-pyrrolidine-1-sulfonyl)isatin, reference compound]
25.3 nM	> 5000 nM	> 5000 nM	> 5000 nM	O=C1C(=O)N(Cc2ccc(I)cc2)c2ccc(S(=O)(=O)N3CCC[C@H]3COc3ccccc3)cc21 [Compound 14, (S)-1-(4-iodobenzyl)-5-(2-phenoxymethyl-pyrrolidine-1-sulfonyl)isatin, reference compound]
19.8 nM	> 5000 nM	> 5000 nM	> 5000 nM	O=C1C(=O)N(Cc2ccc(F)cc2)c2ccc(S(=O)(=O)N3CCC[C@H]3COc3ccccc3)cc21 [Compound 15, (S)-1-(4-fluorobenzyl)-5-(2-phenoxymethyl-pyrrolidine-1-sulfonyl)isatin, reference compound]
78.6 nM	> 5000 nM	> 5000 nM	> 5000 nM	O=C1C(=O)N(Cc2ccc(F)cc2)c2ccc(S(=O)(=O)N3CCCC3)cc21 [Compound 16, 1-(4-Fluorobenzyl)-5-(pyrrolidine-1-sulfonyl)isatin, reference compound]
8 nM	> 5000 nM	> 5000 nM	> 5000 nM	O=C1C(=O)N(Cc2ccc(F)cc2)c2ccc(S(=O)(=O)N3CCC[C@H]3COc3ccc(F)cc3)cc21 [Compound 22, (S)-1-(4-Fluorobenzyl)-5-(2-(4-fluorophenoxymethyl)-pyrrolidine-1-sulfonyl)isatin]
60.4 nM	> 5000 nM	> 5000 nM	> 5000 nM	C#CCN1C(=O)C(=O)c2cc(S(=O)(=O)N3CCC[C@H]3COc3ccc(F)cc3F)ccc21 [Compound 25, (S)-1-(2-Propynyl)-5-(2-(2,4-difluorophenoxymethyl)-pyrrolidine-1-sulfonyl)isatin]

Compound	EC50 (caspase 7)	EC50 (caspase 1)	EC50 (caspase 6)	EC50 (caspase 8)
O=C1C(=O)N(Cc2cn(CCF)nn2)c2ccc(S(=O)(=O)N3CCC[C@H]3COc3ccccc3)cc21 [Compound 10, (S)-1-((1-(2-Fluoroethyl)-1H-[1,2,3]-triazol-4-yl)methyl)-5-(2-phenoxymethyl-pyrrolidine-1-sulfonyl)isatin]	28.2 nM	> 5000 nM	> 5000 nM	> 5000 nM
